# Measurements as given in patent US8420830B2, “Macrocyclic factor VIIa inhibitors useful as anticoagulants” (Bristol-Myers Squibb Company, priority 2006, dated 2013).
# Values joined by “and” are separate entries in the source; they are usually repeats but may differ in a detail not shown here. Identical values can stand only once. Counter-ions that a name gives are not always drawn.
# Molecular target: T1, Factor VIIa (Homo sapiens, UniProt P08709)
# T1 construct: purchased Haematologic Technologies (purified) or Novo Nordisk (recombinant)
# Experiment: Factor VIIa assay
# Format: biochemical
# Conditions: measured in the Factor VIIa assay described above; several values in a cell are repeat determinations
# T1 sequence (P08709 213-466 limits assumed): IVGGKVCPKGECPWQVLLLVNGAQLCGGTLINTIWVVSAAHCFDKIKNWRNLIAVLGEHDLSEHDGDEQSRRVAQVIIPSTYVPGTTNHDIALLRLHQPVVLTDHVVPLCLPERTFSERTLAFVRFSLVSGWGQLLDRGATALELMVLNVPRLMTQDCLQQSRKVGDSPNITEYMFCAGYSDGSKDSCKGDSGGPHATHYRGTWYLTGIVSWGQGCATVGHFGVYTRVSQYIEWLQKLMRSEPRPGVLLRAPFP
# T1 sequence (P08709 61-212 limits assumed): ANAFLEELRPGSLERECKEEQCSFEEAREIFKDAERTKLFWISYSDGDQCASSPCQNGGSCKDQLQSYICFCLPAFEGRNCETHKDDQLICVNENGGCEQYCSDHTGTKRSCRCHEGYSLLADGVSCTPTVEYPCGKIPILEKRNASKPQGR
# T1 sequence (P13726 33-251 partner limits assumed): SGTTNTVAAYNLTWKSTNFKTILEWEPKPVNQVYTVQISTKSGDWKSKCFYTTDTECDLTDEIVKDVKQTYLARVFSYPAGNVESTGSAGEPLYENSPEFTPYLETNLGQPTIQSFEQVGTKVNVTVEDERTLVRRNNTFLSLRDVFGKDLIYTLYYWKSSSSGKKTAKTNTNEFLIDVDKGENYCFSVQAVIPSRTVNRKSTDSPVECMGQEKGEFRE
row,Ki,Structure (SMILES)
1,1.57 nM,"CCO[C@H]1COC(=O)Nc2ccc(S(=O)(=O)C3CC3)c(c2)CN(C)C(=O)[C@H](Nc2ccc3cc[nH]c(=O)c3c2)c2ccc1c(C)c2 (single isomer, unassigned) [Example 40]"
2,27.6 nM,"Cc1cc2ccc1[C@@H](C)CCC(=O)Nc1ccc(OC(F)(F)F)c(c1)CN(C)C(=O)[C@@H]2Nc1ccc2c(F)c[nH]c(=O)c2c1 (single isomer, unassigned) [Example 42]"
3,24 nM and 40.4 nM,"COc1cc2cc(OC)c1CCOC(=O)Nc1cccc(c1)[C@@H](CC(=O)O)NC(=O)[C@@H]2Nc1ccc2nc[nH]c(=O)c2c1 [Example 13, [(2R,5R)-17,20-Dimethoxy-3,12-dioxo-2-(4-oxo-3,4-dihydro-quinazolin-6-ylamino)-13-oxa-4,11-diaza-tricyclo[14.2.2.1^6,10]henicosa-1(19),6,8,10(21),16(20),17-hexaen-5-yl]-acetic acid]"
4,1520 nM,"Cc1cc2cc(C)c1CCOC(=O)Nc1cccc(c1)CN(C)C(=O)C2Nc1ccc2cc[nH]c(=O)c2c1 (stereo not shown) [Example 14, 4,17,20-Trimethyl-2-(1-oxo-1,2-dihydro-isoquinolin-7-ylamino)-13-oxa-4,11-diaza-tricyclo[14.2.2.1^6,10]henicosa-1(19),6,8,10(21),16(20),17-hexaene-3,12-dione]"
5,0.96 nM,"CCc1cc2ccc1[C@@H](C)COC(=O)Nc1ccc(S(=O)(=O)C3CC3)c(c1)CN(C)C(=O)[C@@H]2Nc1ccc2cc[nH]c(=O)c2c1 [Example 18, (2R,15R)-7-Cyclopropanesulfonyl-17-ethyl-4,15-dimethyl-2-(1-oxo-1,2-dihydro-isoquinolin-7-ylamino)-13-oxa-4,11-diaza-tricyclo[14.2.2.1^6,10]henicosa-1(19),6,8,10(21),16(20),17-hexaene-3,12-dione]"
6,29.4 nM and 34 nM,"CC[C@H]1COC(=O)Nc2ccc(S(=O)(=O)C3CC3)c(c2)CN(C)C(=O)[C@H](Nc2ccc3nc[nH]c(=O)c3c2)c2ccc1cc2 [Example 65, (2R,15R)-7-Cyclopropanesulfonyl-15-ethyl-4-methyl-2-(4-oxo-3,4-dihydro-quinazolin-6-ylamino)-13-oxa-4,11-diaza-tricyclo[14.2.2.1^6,10]henicosa-1(19),6,8,10(21),16(20),17-hexaene-3,12-dione]"
7,0.69 nM and 0.86 nM and 0.87 nM and 0.96 nM and 1.14 nM and 1.22 nM,"Cc1cc2ccc1[C@@H](C)COC(=O)Nc1ccc(S(=O)(=O)C3CC3)c(c1)CN(C)C(=O)[C@@H]2Nc1ccc2nc[nH]c(=O)c2c1 [Example 76, (2R,15R)-7-Cyclopropanesulfonyl-4,15,17-trimethyl-2-(4-oxo-3,4-dihydro-quinazolin-6-ylamino)-13-oxa-4,11-diaza-tricyclo[14.2.2.1^6,10]henicosa-1(19),6,8,10(21),16(20),17-hexaene-3,12-dione trifluoroacetate]"
8,1.35 nM and 1.38 nM,"Cc1cc2ccc1[C@@H](C)COC(=O)Nc1ccc(S(=O)(=O)C3CC3)c(c1)CN(C)C(=O)[C@@H]2Nc1cc2c(=O)[nH]cnc2cc1F [Example 78, (2R,15R)-7-Cyclopropanesulfonyl-2-(7-fluoro-4-oxo-3,4-dihydro-quinazolin-6-ylamino)-4,15,17-trimethyl-13-oxa-4,1-diaza-tricyclo[14.2.2.1^6,10]henicosa-1(19),6,8,10(21),16(20),17-hexaene-3,12-dione]"
9,0.88 nM,"Cc1cc2ccc1[C@@H](C)COC(=O)Nc1ccc(S(=O)(=O)C3CC3)c(c1)CN(C)C(=O)[C@@H]2Nc1ccc2cc[nH]c(=O)c2c1 [Example 79, (2R,15R)-7-Cyclopropanesulfonyl-4,15,17-trimethyl-2-(1-oxo-1,2-dihydro-isoquinolin-7-ylamino)-13-oxa-4,1-diaza-tricyclo[14.2.2.1^6,10]henicosa-1(19),6,8,10(21),16(20),17-hexaene-3,12-dione]"
10,0.61 nM,"COc1cc2ccc1[C@@H](C)COC(=O)Nc1ccc(S(=O)(=O)C3CC3)c(c1)CN(C)C(=O)[C@@H]2Nc1ccc2cc[nH]c(=O)c2c1 [Example 82, (2R,15R)-7-Cyclopropanesulfonyl-17-methoxy-4,15-dimethyl-2-(1-oxo-1,2-dihydro-isoquinolin-7-ylamino)-13-oxa-4,11-diaza-tricyclo[14.2.2.1^6,10]henicosa-1(19),6,8,10(21),16(20),17-hexaene-3,12-dione]"
11,1.44 nM,"C[C@H]1COC(=O)Nc2ccc(S(=O)(=O)C3CC3)c(c2)CN(C)C(=O)[C@H](Nc2ccc3cc[nH]c(=O)c3c2)c2ccc1c(Cl)c2 [Example 84, (2R,15R)-17-Chloro-7-cyclopropanesulfonyl-4,15-dimethyl-2-(1-oxo-1,2-dihydro-isoquinolin-7-ylamino)-13-oxa-4,11-diaza-tricycle [14.2.2.1^6,10]henicosa-1(19),6,8,10(21),16(20),17-hexaene-3,12-dione]"
12,1.95 nM,"Cc1cc2ccc1[C@@H](C)COC(=O)Nc1ccc(N3CCCCS3(=O)=O)c(c1)CN(C)C(=O)[C@@H]2Nc1ccc2cc[nH]c(=O)c2c1 [Example 86, (2R,15R)-7-(1,1-Dioxo-1λ^6-perhydro-1,2-thiazin-2-yl)-4,15,17-trimethyl-2-(1-oxo-1,2-dihydro-isoquinolin-7-ylamino)-13-oxa-4,11-diaza-tricyclo[14.2.2.1^6,10]henicosa-1(19),6,8,10(21),16(20),17-hexaene-3,12-dione]"
13,21.9 nM,"COC(=O)N1CC(=O)Nc2ccc(S(=O)(=O)C(C)C)c(c2)CNC(=O)C(Nc2ccc3nc[nH]c(=O)c3c2)c2cc(C)c(c(C)c2)C1 (stereo not shown) [Example 117, 17,20-Dimethyl-3,12-dioxo-2-(4-oxo-3,4-dihydro-quinazolin-6-ylamino)-7-(propane-2-sulfonyl)-4,11,14-triaza-tricyclo[14.2.2.1^6,10]henicosa-1(19),6,8,10(21),16(20),17-hexaene-14-carboxylic acid methyl ester trifluoroacetate]"
14,28.1 nM,"CCC(=O)N1CC(=O)Nc2ccc(S(=O)(=O)C(C)C)c(c2)CNC(=O)C(Nc2ccc3nc[nH]c(=O)c3c2)c2cc(C)c(c(C)c2)C1 (stereo not shown) [Example 118, 17,20-Dimethyl-2-(4-oxo-3,4-dihydro-quinazolin-6-ylamino)-7-(propane-2-sulfonyl)-14-propionyl-4,11,14-triaza-tricyclo[14.2.2.1^6,10]henicosa-1(19),6,8,10(21),16(20),17-hexaene-3,12-dione trifluoroacetate]"
15,23.6 nM,"CCN1CC(=O)Nc2ccc(S(=O)(=O)C(C)C)c(c2)CNC(=O)C(Nc2ccc3nc[nH]c(=O)c3c2)c2cc(C)c(c(C)c2)C1 (stereo not shown) [Example 121, 14-Ethyl-17,20-dimethyl-2-(4-oxo-3,4-dihydro-quinazolin-6-ylamino)-7-(propane-2-sulfonyl)-4,11,14-triaza-tricyclo[14.2.2.1^6,10]henicosa-1(19),6,8,10(21),16(20),17-hexaene-3,12-dione bistrifluoroacetate]"
16,33.2 nM,"Cc1cc2cc(C)c1CN(C(C)C)CC(=O)Nc1ccc(S(=O)(=O)C(C)C)c(c1)CNC(=O)C2Nc1ccc2nc[nH]c(=O)c2c1 (stereo not shown) [Example 124, 14-Isopropyl-17,20-dimethyl-2-(4-oxo-3,4-dihydro-quinazolin-6-ylamino)-7-(propane-2-sulfonyl)-4,11,114-triaza-tricyclo[14.2.2.1^6,10]henicosa-1(19),6,8,10(21),06(20),17-hexaene-3,12-dione bistrifluoroacetate]"
17,26.6 nM,"CC(=O)N1CC(=O)Nc2ccc(S(=O)(=O)C(C)C)c(c2)CNC(=O)C(Nc2ccc3cc[nH]c(=O)c3c2)c2cc(C)c(c(C)c2)C1 (stereo not shown) [Example 128, 14-Acetyl-17,20-dimethyl-2-(1-oxo-1,2-dihydro-isoquinolin-7-ylamino)-7-(propane-2-sulfonyl)-4,11,14-triaza-tricyclo[14.2.2.1^6,10]henicosa-1(19),6,8,10(21),16(20),17-hexaene-3,12-dione trifluoroacetate]"
18,3100 nM,"CCOC(=O)CCN1Cc2cccc(c2)NC(=O)OCCc2c(C)cc(cc2C)[C@@H](Nc2ccc3cc[nH]c(=O)c3c2)C1=O [Example 144, 3-[17,20-Dimethyl-3,12-dioxo-2-(1-oxo-1,2-dihydro-isoquinolin-7-ylamino)-13-oxa-4,11-diaza-tricyclo[14.2.2.1^6,10]henicosa-1(19),6,8,10(21),16(20),17-hexaen-4-yl]-propionic acid ethyl ester]"
19,1300 nM,"Cc1cc2cc(C)c1CCOC(=O)Nc1cccc(c1)CN(CCC(=O)O)C(=O)C2Nc1ccc2cc[nH]c(=O)c2c1 (stereo not shown) [Example 145, 3-[17,20-Dimethyl-3,12-dioxo-2-(1-oxo-1,2-dihydro-isoquinolin-7-ylamino)-13-oxa-4,11-diaza-tricyclo[14.2.2.1^6,10]henicosa-1(19),6,8,10(21),16(20),17-hexaen-4-yl]-propionic acid]"
20,2530 nM,"Cc1cc2ccc1[C@@H](C)COC(=O)Nc1cccc(c1)CN(CCNC(=O)OC(C)(C)C)C(=O)[C@@H]2Nc1ccc2cc[nH]c(=O)c2c1 [Example 148, {2-[(2R,15R)-15,17-Dimethyl-3,12-dioxo-2-(1-oxo-1,2-dihydro-isoquinolin-7-ylamino)-13-oxa-4,11-diaza-tricyclo[14.2.2.1^6,10]henicosa-1(19),6,8,10(21),16(20),17-hexaen-4-yl]-ethyl}-carbamic acid tert-butyl ester]"
21,1210 nM,"Cc1cc2ccc1[C@@H](C)COC(=O)Nc1cccc(c1)CN(CCN)C(=O)[C@@H]2Nc1ccc2cc[nH]c(=O)c2c1 [Example 149, (2R,15R)-4-(2-Amino-ethyl)-15,17-dimethyl-2-(1-oxo-1,2-dihydro-isoquinolin-7-ylamino)-13-oxa-4,11-diaza-tricyclo[14.2.2.1^6,10]henicosa-1(19),6,8,10(21),16(20),17-hexaene-3,12-dione]"
22,1120 nM,"Cc1cc2ccc1[C@@H](C)COC(=O)Nc1cccc(c1)CN(CCO)C(=O)[C@@H]2Nc1ccc2cc[nH]c(=O)c2c1 [Example 151, (2R,15R)-4-(2-Hydroxy-ethyl)-15,17-dimethyl-2-(1-oxo-1,2-dihydro-isoquinolin-7-ylamino)-13-oxa-4,11-diaza-tricyclo[14.2.2.1^6,10]henicosa-1(19),6,8,10(21),16(20),17-hexaene-3,12-dione]"
